Assay results as given in patent US9322066B2, “Predictors for cancer treatment” (priority 2011, dated 2016).

Tested on: relapsed or refractory, rituximab-naive or -sensitive follicular B-cell NHL
Assay: Progression-free survival (PFS), Vc-R vs rituximab study, by biomarker
Type: in vivo, human
Text: Non-Hodgkin lymphoma (NHL) encompasses several unique malignant lymphoid disease entities that vary in clinical behavior, morphologic appearance, immunologic, and molecular phenotype. […] A randomized, open-label, active-controlled, multicenter, multinational, prospective study to compare the efficacy and safety of the combination of bortezomib and rituximab (Vc-R) to single-agent rituximab in subjects who have relapsed or refractory, rituximab-naive or -sensitive follicular B-cell NHL was performed.
Subjects were centrally randomized to Treatment Groups A (Vc-R) or B (rituximab) in a 1:1 ratio taking into account the following stratification factors: • Follicular Lymphoma International Prognostic Index (FLIPI) score (low [0 or 1 factor], intermediate [2 factors], high [≧3 factors]); • Prior rituximab therapy (yes, no); • Time since last dose of anti-lymphoma therapy (≦1 year, >1 year); • Region (United States/Canada, European Union, Rest of World).
The following clinical endpoints were included in the analysis within each treatment group and an overall comparison was made with the biomarker-related endpoints: Progression-free survival, defined as the interval between the date of randomization and the date of progressive disease (PD) or death, whichever is first reported in the ITT population; overall survival; overall response rate (complete response [CR]+CR unconfirmed [CRu]+partial response [PR]); overall CR rate (CR+CRu); duration of response; time to next anti-lymphoma therapy; and treatment free interval.
For single-marker association analyses and pair-wise comparisons, a log rank test and Cox proportional hazard model was utilized for assessments of PFS, TTP, and OS between the treatment groups. Kaplan-Meier curves were utilized to estimate the distribution differences between groups in the time-to-event analyses. Comparison of the response rates between the treatment groups was conducted using the Fishers exact test. Single-marker association analyses were stratified by the covariates.
For pair-wise comparison analysis, biomarker pairs were formed by combinations of two markers. A log rank test was utilized for assessments of PFS, TTP, and OS between the treatment groups in the subpopulation defined by biomarker pairs. Kaplan-Meier curves were utilized to estimate the distribution differences between groups in the time-to-event analyses. Comparison of the response rates between the treatment groups was conducted using the Fishers exact test. Methods of Analysis for the multiple biomarker comparison models can be found in section 4.6.
The stratified log rank test and Cox proportional hazard model was utilized for assessments of PFS between the treatment groups. The Kaplan-Meier method was to be used to estimate the distribution of overall PFS for each treatment group in the biomarker population, and overall; stratified by expression level, SNP, or mutation (or covariate groups as noted above). The hazard ratio and 95% confidence interval was based on a stratified Cox's proportion hazard model with treatment as the explanatory variable. Analyses were done for the population overall and by treatment group, and each of these analyses were also stratified by the following factors if sufficient sample size existed: […]

With rituximab the “Median PFS (Vc − R vs R)” value (20S % NUCLEAR STAINING 30-90 + 20S INTENSITY CYTOPLASMIC SIGNAL >=3+, Excluded) was 347 days, the “Median PFS (Vc − R vs R)” value (20S % NUCLEAR STAINING 30-90 + 20S INTENSITY CYTOPLASMIC SIGNAL >=3+, Selected) was 280 days and the “Median PFS (Vc − R vs R)” value (20S % NUCLEAR STAINING 30-90 + 20S INTENSITY CYTOPLASMIC SIGNAL >=3+, Total) was 345 days. The “Median PFS (Vc-R vs R)” value (AGEGRP <=65 + CD68 POSITIVE FOLLICULAR 0-50, Excluded) was 427 days, the “Median PFS (Vc-R vs R)” value (AGEGRP <=65 + CD68 POSITIVE FOLLICULAR 0-50, Selected) was 275 days and the “Median PFS (Vc-R vs R)” value (AGEGRP <=65 + CD68 POSITIVE FOLLICULAR 0-50, Total) was 346 days. The “Median PFS (Vc − R vs R)” value (AGEGRP <=65 + CD68 POSITIVE PERIFOLLICULAR 0-50, Excluded) was 351 days, the “Median PFS (Vc − R vs R)” value (AGEGRP <=65 + CD68 POSITIVE PERIFOLLICULAR 0-50, Selected) was 281 days and the “Median PFS (Vc − R vs R)” value (AGEGRP <=65 + CD68 POSITIVE PERIFOLLICULAR 0-50, Total) was 346 days. For the same substance, the “Median PFS (Vc − R vs R)” value (AGEGRP <=65 + P27 % NUCLEI POSITIVE 0-70, Excluded) was 348 days, the “Median PFS (Vc − R vs R)” value (AGEGRP <=65 + P27 % NUCLEI POSITIVE 0-70, Selected) was 279 days and the “Median PFS (Vc − R vs R)” value (AGEGRP <=65 + P27 % NUCLEI POSITIVE 0-70, Total) was 345 days. The “PFS median” value (Biomarker Negative (all subjects without the pair), N = 238) was 12.5 months, the “PFS median” value (Biomarker Positive (PSMB P11A heterozygote and CD68 Low), N = 118) was 9.1 months and the PFS median (CD68 OVERALL POSITIVE 0-25) was 10.6 mo. For the same substance, the PFS median (CD68 OVERALL POSITIVE 26-50) was 9.3 mo, the PFS median (CD68 POSITIVE FOLLICULAR 0-25) was 9.3 mo and the “Median PFS (Vc − R vs R)” value (CD68 POSITIVE FOLLICULAR 0-50 + CD68 POSITIVE PERIFOLLICULAR 0-50, Excluded) was 351 days. For the same substance, the “Median PFS (Vc − R vs R)” value (CD68 POSITIVE FOLLICULAR 0-50 + CD68 POSITIVE PERIFOLLICULAR 0-50, Selected) was 282 days, the “Median PFS (Vc − R vs R)” value (CD68 POSITIVE FOLLICULAR 0-50 + CD68 POSITIVE PERIFOLLICULAR 0-50, Total) was 346 days and the “Median PFS (Vc − R vs R)” value (CD68 POSITIVE FOLLICULAR 0-50 + P65 % POSITIVE CYTOPLASMIC SIGNAL >90%, Excluded) was 486 days. For the same substance, the “Median PFS (Vc − R vs R)” value (CD68 POSITIVE FOLLICULAR 0-50 + P65 % POSITIVE CYTOPLASMIC SIGNAL >90%, Selected) was 279 days, the “Median PFS (Vc − R vs R)” value (CD68 POSITIVE FOLLICULAR 0-50 + P65 % POSITIVE CYTOPLASMIC SIGNAL >90%, Total) was 346 days and the PFS median (CD68 POSITIVE FOLLICULAR 26-50) was 9.1 mo. The PFS median (CD68 Pos Follic (0-50) & P11A[C/G]**, first line (P 0.0025)) was 8.5 mo, the PFS median (CD68 Pos Follic (0-50) & P11A[C/G]**, second line (n.s.)) was 9.2 mo and the “PFS” value (CD68 high) was “did better on rituximab alone”. The “Median PFS (Vc-R vs R)” value (Excluded: 20S % NUCLEAR STAINING 30-90 and P65 % POSITIVE CYTOPLASMIC SIGNAL >90%) was 419 days, the “Median PFS (Vc-R vs R)” value (Excluded: AGEGRP <=65 and CD68 OVERALL POSITIVE 0-50) was 351 days and the “Median PFS (Vc-R vs R)” value (Excluded: AGEGRP <=65 and P65 % POSITIVE CYTOPLASMIC SIGNAL >90%) was 414 days. The “Median PFS (Vc-R vs R)” value (Excluded: CD68 OVERALL POSITIVE 0-50 and P65 % POSITIVE C[…] >90%) was 375 days, the “Median PFS (Vc-R vs R)” value (Excluded: FLIPI High and P65 % POSITIVE CYTOPLASMIC SIGNAL >90%) was 378 days and the “Median PFS (Vc-R vs R)” value (Excluded: PRITUX NO and P65 % NUCLEAR STAINING 0) was 346 days. For the same substance, the “Median PFS (Vc-R vs R)” value (Excluded: PSMB1/P11A C/G and ANNARBOR >=III) was 375 days, the “Median PFS (Vc-R vs R)” value (Excluded: PSMB1/P11A C/G and P65 % NUCLEAR STAINING 0) was 346 days and the “Median PFS (Vc − R vs R)” value (FLIPI High + P27 % NUCLEI POSITIVE 0-70, Excluded) was 351 days. The “Median PFS (Vc − R vs R)” value (FLIPI High + P27 % NUCLEI POSITIVE 0-70, Selected) was 212 days, the “Median PFS (Vc − R vs R)” value (FLIPI High + P27 % NUCLEI POSITIVE 0-70, Total) was 345 days and the PFS median (HI Tumor BD NO & CD68 OVERALL POSITIVE: 0-50) was 16 mo. For the same substance, the PFS median (HI Tumor BD NO & CD68 POSITIVE FOLLICULAR: 0-50) was 13.8 mo, the PFS median (P65 Cytoplasmic signal >90% & 1 prior treatment*, first line (P 0.0132)) was 10.6 mo and the PFS median (P65 Cytoplasmic signal >90% & 1 prior treatment*, second line (n.s.)) was 8.9 mo. For the same substance, the PFS median (P65 INTENSITY CYTOPLASMIC SIGNAL <=1+) was 9.3 mo, the PFS median (PSMB1/P11A C/G) was 9.3 mo and the PFS median (PSMB1/P11A C/G & 20S % POSITIVE CYTOPLASMIC SIGNAL: >90) was 9.5 mo. For the same substance, the PFS median (PSMB1/P11A C/G & Age group: <=65) was 9.2 mo, the PFS median (PSMB1/P11A C/G & CD68 POSITIVE FOLLICULAR: 0-50) was 9.1 mo and the PFS median (PSMB1/P11A C/G & CD68 POSITIVE PERIFOLLICULAR: >50) was 9.2 mo. The PFS median (PSMB1/P11A C/G & PSMB5/R24C C/T) was 7.8 mo, the PFS median (PSMB1/P11A C/G & Time since last Rx: >1 year) was 10.7 mo and the “Median PFS (Vc-R vs R)” value (PSMB1/P11A C/G + 20S % NUCLEAR STAINING 30-90, Excluded) was 346 days. The “Median PFS (Vc-R vs R)” value (PSMB1/P11A C/G + 20S % NUCLEAR STAINING 30-90, Selected) was 275 days, the “Median PFS (Vc-R vs R)” value (PSMB1/P11A C/G + 20S % NUCLEAR STAINING 30-90, Total) was 345 days and the “Median PFS (Vc-R vs R)” value (PSMB1/P11A C/G + 20S INTENSITY CYTOPLASMIC SIGNAL <=2+, Excluded) was 345 days. For the same substance, the “Median PFS (Vc-R vs R)” value (PSMB1/P11A C/G + 20S INTENSITY CYTOPLASMIC SIGNAL <=2+, Selected) was 278 days, the “Median PFS (Vc-R vs R)” value (PSMB1/P11A C/G + 20S INTENSITY CYTOPLASMIC SIGNAL <=2+, Total) was 345 days and the “Median PFS (Vc-R vs R)” value (PSMB1/P11A C/G + AGEGRP <=65, Excluded) was 348 days. For the same substance, the “Median PFS (Vc-R vs R)” value (PSMB1/P11A C/G + AGEGRP <=65, Selected) was 279 days, the “Median PFS (Vc-R vs R)” value (PSMB1/P11A C/G + AGEGRP <=65, Total) was 345 days and the “Median PFS (Vc − R vs R)” value (PSMB1/P11A C/G + CD68 OVERALL POSITIVE 0-50, Excluded) was 348 days. The “Median PFS (Vc − R vs R)” value (PSMB1/P11A C/G + CD68 OVERALL POSITIVE 0-50, Selected) was 278 days, the “Median PFS (Vc − R vs R)” value (PSMB1/P11A C/G + CD68 OVERALL POSITIVE 0-50, Total) was 345 days and the “Median PFS (Vc-R vs R)” value (PSMB1/P11A C/G + P27 % NUCLEI POSITIVE 0-70, Excluded) was 348 days. The “Median PFS (Vc-R vs R)” value (PSMB1/P11A C/G + P27 % NUCLEI POSITIVE 0-70, Selected) was 277 days, the “Median PFS (Vc-R vs R)” value (PSMB1/P11A C/G + P27 % NUCLEI POSITIVE 0-70, Total) was 338 days and the “Median PFS (Vc-R vs R)” value (PSMB1/P11A C/G + P27 SIGNAL INTENSITY >=2+, Excluded) was 346 days. For the same substance, the “Median PFS (Vc-R vs R)” value (PSMB1/P11A C/G + P27 SIGNAL INTENSITY >=2+, Selected) was 280 days and the “Median PFS (Vc-R vs R)” value (PSMB1/P11A C/G + P27 SIGNAL INTENSITY >=2+, Total) was 338 days.
